{"source": "patent US20130046098A1", "about": "“KINASE INHIBITORS” (THE UNIVERSITY OF MANCHESTER, priority 2009, published 2013)", "key": {"ROCK": {"system": "ROCK", "experiment": "SelectScreen 40 kinase panel", "format": "biochemical, human", "conditions": "10 μM, Km ATP", "excerpt": "The SelectScreen™ kinase inhibitor assay service was used (Invitrogen Ltd., Paisley, UK) to investigate the ability of the compounds of the invention to inhibit a large number of different kinases. This commercially provided service allows assessment of the ability of a compound (or compounds) of interest to inhibit a broad panel of human kinases. Further details regarding this service are available on the Invitrogen website at:\nIn the present study YA1 (a compound in accordance with formula (V)) was investigated for its ability to inhibit the activity of the 40 kinases shown in panel B of FIG. 2. The compounds of the invention were diluted in DMSO at a concentration of 10 mM and single-point kinase inhibitory activities were measured at 10 μM and Km ATP concentration."}, "[1]": {"system": "single transformed colony derived GEF16 cells co-cultured with non-transformed vector cells", "experiment": "Co-culture of single colony derived GEF16 cells with non-transformed vector cells", "format": "cell-based, mouse", "conditions": "10 μM, 10 days", "protocol": "(§1) FIG. 5 illustrates that the growth suppressive effects of YA1 on single transformed colony derived GEF16 NIH3T3 cells and polyclonal Ras transformed NIH3T3 cells are more pronounced when these are co-cultured with non-transformed cells. In FIG. 5A single transformed colonies were picked from 10 day cultures of GEF16 polyclonal NIH3T3 cells and expanded. These cells were then seeded at 2.0×10^5 cells per 30 mm dish and treated with 10 μM of YA1 or DMSO control either immediately or following 10 days in culture. Duplicate wells were harvested for flow cytometry. In FIG. 5B a total of 2×10^5 cells per well were plated consisting of increasing numbers of non-transformed vector cells co-cultured with decreasing numbers of single transformed colony derived GEF16 cells. These were treated with 10 μM of either YA1 or DMSO for 10 days. In producing the results shown in FIG. 5C the same co-culture experiment described in connection with FIG. 5B was carried out substituting polyclonal Ras transformed NIH3T3 cells for GEF16 transformed cells.\nNon-transformed vector cells mixed with decreasing numbers of cells expanded from single GEF16 transformed colonies were treated with the compound of the invention YA1, or with DMSO, and incubated for 10 days."}, "[2]": {"system": "polyclonal Ras transformed NIH3T3 cells", "experiment": "Co-culture of Ras transformed cells with non-transformed cells / Ras colony formation", "format": "cell-based, mouse", "protocol": "as §1, with “In producing the results shown in FIG. 5C the same co-culture experiment described in connection with FIG. 5B was carried out substituting polyclonal Ras transformed NIH3T3 cells for GEF16 transformed cells.” left out\nTransformed cell populations were produced by transfection with constructs causing cellular expression of GEF16 or Ras as follows. The full-length GEF16 open reading frame (Accession NM_014448) was PCR amplified, sequence verified and subcloned into the mammalian expression vector pCMVTag (Invitrogen Ltd., Paisley, UK) to produce a construct pCMVTag-GEF16 cDNA. […]"}, "[3]": {"system": "GEF16 transformed donor cells and non-transformed NIH3T3-vector recipient cells", "experiment": "Flow cytometric LY/PKH67 assay of gap junction intercellular communication (GJIC)", "format": "cell-based, mouse", "conditions": "10 μM, p<0.05, FIG. 6B", "protocol": "A novel flow cytometric assay was developed to measure the extent of gap junction intercellular communication (GJIC) using two differentially stained cell populations. Non-transformed recipient NIH3T3-vector cells were stained with PKH67 (Excitation 490, Emission 502, Sigma-Aldrich, Poole, UK) and GEF16 transformed donor cells were stained with Lucifer yellow (LY) (Excitation 427 nm, Emission 517 nm, Invitrogen Ltd., Paisley, UK) as follows.\nA 1 ml suspension of 1×10^7 recipient cells in serum-free DMEM was mixed with an equal volume of 4 μM PKH67 solution and incubated for 5 min at room temperature. The reaction was terminated by adding 2 ml serum and incubating for 1 min. Cells were then washed three times with culture medium, and seeded at 1.5×10^6 cells/T-25 flask. […]\nLY labelled donor cells were then harvested and 1×10^5 were added to the T25 flask containing the PKH67 labelled recipient cells plus 10 μM YA1 or DMSO control. After incubating for various time intervals, the co-cultured donor and recipient cells were collected and analysed using a BD FACS Aria™ (BD Biosciences, Oxford, UK). A 405 nm laser was used for LY excitation and emission was measured using a 515 nm to 545 nm band pass filter. GJIC between co-cultured donor and recipient cells was quantified as the percentage of LY and PKH67 double labelled cells."}, "ROCK2": {"target": "ROCK2 (Homo sapiens, UniProt O75116)", "sequence (O75116 whole entry)": "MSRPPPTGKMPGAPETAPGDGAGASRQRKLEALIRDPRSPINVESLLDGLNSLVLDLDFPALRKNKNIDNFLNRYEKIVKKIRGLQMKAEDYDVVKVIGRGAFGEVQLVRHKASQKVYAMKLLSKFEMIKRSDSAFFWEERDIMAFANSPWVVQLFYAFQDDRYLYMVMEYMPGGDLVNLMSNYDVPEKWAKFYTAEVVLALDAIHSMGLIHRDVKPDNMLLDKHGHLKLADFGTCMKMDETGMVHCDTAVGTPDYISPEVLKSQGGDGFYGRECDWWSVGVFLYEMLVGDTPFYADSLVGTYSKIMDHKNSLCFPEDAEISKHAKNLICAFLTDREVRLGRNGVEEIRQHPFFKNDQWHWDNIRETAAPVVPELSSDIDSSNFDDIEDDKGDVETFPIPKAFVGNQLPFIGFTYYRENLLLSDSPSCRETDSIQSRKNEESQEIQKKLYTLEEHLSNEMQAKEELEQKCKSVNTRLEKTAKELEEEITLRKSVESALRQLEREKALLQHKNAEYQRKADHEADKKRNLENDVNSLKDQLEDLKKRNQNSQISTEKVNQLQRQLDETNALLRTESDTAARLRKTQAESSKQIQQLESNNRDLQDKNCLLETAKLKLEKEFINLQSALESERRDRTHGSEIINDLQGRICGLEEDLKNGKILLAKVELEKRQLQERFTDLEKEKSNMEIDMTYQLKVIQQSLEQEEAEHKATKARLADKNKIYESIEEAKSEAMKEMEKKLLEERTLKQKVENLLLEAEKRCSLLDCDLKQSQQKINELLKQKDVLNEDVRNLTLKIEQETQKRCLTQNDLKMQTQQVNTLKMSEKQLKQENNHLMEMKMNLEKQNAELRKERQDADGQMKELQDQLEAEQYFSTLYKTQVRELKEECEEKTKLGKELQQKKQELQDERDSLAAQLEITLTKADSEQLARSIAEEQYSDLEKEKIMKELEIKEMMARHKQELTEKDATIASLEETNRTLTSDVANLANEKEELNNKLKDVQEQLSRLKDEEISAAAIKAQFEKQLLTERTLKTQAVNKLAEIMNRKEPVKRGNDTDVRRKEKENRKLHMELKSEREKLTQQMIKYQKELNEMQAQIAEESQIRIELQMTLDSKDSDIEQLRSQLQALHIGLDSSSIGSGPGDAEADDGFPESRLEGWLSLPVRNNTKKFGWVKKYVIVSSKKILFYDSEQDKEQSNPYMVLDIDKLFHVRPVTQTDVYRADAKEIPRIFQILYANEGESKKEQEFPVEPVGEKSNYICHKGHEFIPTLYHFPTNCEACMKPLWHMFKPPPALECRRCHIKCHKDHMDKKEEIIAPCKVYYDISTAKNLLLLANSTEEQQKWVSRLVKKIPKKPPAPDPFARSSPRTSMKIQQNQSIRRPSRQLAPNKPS", "experiment": "SelectScreen additional single point analysis", "conditions": "10 μM"}}, "note": "“Also recorded” adds a separate entry of the source.", "data": [{"smiles": "CC(C)(C)OC(=O)NCc1ccc(C(=O)Nc2ccncc2)cc1", "note": "[YA1, 4-(Pyridin-4-ylcarbamoyl)benzylcarbamic acid tert-butyl ester]", "values": [{"measurement": "ROCK inhibitory activity", "setting": "ROCK", "result": "~40", "unit": "%"}, {"measurement": "final saturation density / growth of transformed cells in co-culture with non-transformed cells", "setting": "[1]", "result": "marked reduction in the final saturation density of the cultures; also recorded: more effective at suppressing the growth of transformed cells when these are in contact with non-transformed cells; also recorded: clearly restored when these are co-cultured with non-transformed NIH3T3 cells"}, {"measurement": "growth suppression / colony formation of Ras transformed NIH3T3 cells", "setting": "[2]; 10 μM, 10 days, co-culture with non-transformed cells", "result": "same growth suppressive effects on Ras transformed NIH3T3 cell colonies as with GEF16 transformed cells; also recorded: highly effective at preventing the formation of Ras transformed NIH3T3 colonies"}, {"measurement": "contact inhibition and polarity of Ras transformed cells (phase contrast images)", "setting": "[2]; YA1 treated", "result": "regain both contact inhibition and polarity"}, {"measurement": "number of double LY/PKH67 labelled cells compared to DMSO control", "setting": "[3]", "result": "approximately 3 times"}, {"measurement": "activity against ROCK2", "setting": "ROCK2", "result": "less activity against ROCKs than YA2"}]}]}
